Results reported in ChEMBL document CHEMBL1201862, “PubChem BioAssay data set” (2004).
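Tested at 5 concentrations; 48 h exposure; 96-well plates; endpoints linearly interpolated, else capped at highest concentration. GI50: concentration for 50% inhibition of growth.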 Active and inactive are the calls of the source. No stated cut-off is given here; in the data, active = GI50 up to about 1.1 µM and inactive = higher.

What was measured:
Assay in all cases: growth of human tumour cells (NCI), 48 h
[1] = system: SK-OV-3
[2] = system: HOP-62
[3] = system: SK-MEL-5
[4] = system: OVCAR-3
[5] = system: SK-MEL-28
[6] = system: UACC-62
[7] = system: HT-29
[8] = system: A498
[9] = system: SNB-75
[10] = system: Malme-3M
[11] = system: NCI/ADR-RES
[12] = system: Hs-578T
[13] = system: RPMI-8226
[14] = system: PC-3
[15] = system: NCI-H522
[16] = system: NCI-H460
[17] = system: M14
[18] = system: COLO 205
[19] = system: MOLT-4
[20] = system: HOP-92
[21] = system: T47D
[22] = system: CAKI-1
[23] = system: HL-60
[24] = system: HCT-116
[25] = system: SR
[26] = system: K562
[27] = system: MDA-MB-231
[28] = system: DU-145
[29] = system: CCRF-CEM
[30] = system: MDA-MB-435
[31] = system: NCI-H23
[32] = system: KM12
[33] = system: U-251
[34] = system: SN12C
[35] = system: SF-295
[36] = system: SK-MEL-2
[37] = system: OVCAR-8
[38] = system: IGROV-1
[39] = system: MDA-N
[40] = system: HCT-15
[41] = system: NCI-H226
[42] = system: ACHN
[43] = system: EKVX
[44] = system: TK-10
[45] = system: HCC 2998
[46] = system: LOX IMVI
[47] = system: SF-268
[48] = system: 786-0
[49] = system: OVCAR-5
[50] = system: OVCAR-4
[51] = system: UO-31
[52] = system: SNB-19
[53] = system: UACC-257
[54] = system: SF-539
[55] = system: RXF 393
[56] = system: A549
[57] = system: SW-620
[58] = system: MCF7

For C1=C(N2CCOCC2)/C(=C2\SC(=N/c3ccccc3)/C(=N\c3ccccc3)N2c2ccccc2)CC1, the GI50 [1] was 34.1 µM (inactive), the GI50 [2] was 28.9 µM (inactive) and the GI50 [3] was > 100 µM (inactive). The GI50 [4] was 52.4 µM (inactive), the GI50 [5] was 75.2 µM (inactive) and the GI50 [6] was 18.7 µM (inactive). For the same compound, the GI50 [7] was > 100 µM (inactive), the GI50 [8] was 94.4 µM (inactive) and the GI50 [9] was 23.1 µM (inactive). For the same compound, the GI50 [10] was > 100 µM (inactive), the GI50 [11] was > 100 µM (inactive) and the GI50 [12] was 26.8 µM (inactive). The GI50 [13] was > 100 µM (inactive), the GI50 [14] was > 100 µM (inactive) and the GI50 [15] was 29 µM (inactive). For the same compound, the GI50 [16] was > 100 µM (inactive), the GI50 [17] was 38.2 µM (inactive) and the GI50 [18] was > 100 µM (inactive). For the same compound, the GI50 [19] was 20.9 µM (inactive), the GI50 [20] was 34.8 µM (inactive) and the GI50 [21] was > 100 µM (inactive). The GI50 [22] was 51.8 µM (inactive), the GI50 [23] was > 10 µM (inactive) and the GI50 [24] was > 100 µM (inactive). For the same compound, the GI50 [25] was 67.5 µM (inactive), the GI50 [26] was > 100 µM (inactive) and the GI50 [27] was 61.5 µM (inactive). For the same compound, the GI50 [28] was > 100 µM (inactive), the GI50 [29] was 19.7 µM (inactive) and the GI50 [30] was > 100 µM (inactive). For the same compound, the GI50 [31] was > 100 µM (inactive), the GI50 [32] was > 100 µM (inactive) and the GI50 [33] was 68.4 µM (inactive). For the same compound, the GI50 [34] was > 100 µM (inactive), the GI50 [35] was 49.2 µM (inactive) and the GI50 [36] was 89.3 µM (inactive). For the same compound, the GI50 [37] was 62.5 µM (inactive), the GI50 [38] was > 100 µM (inactive) and the GI50 [39] was > 100 µM (inactive). The GI50 [40] was > 100 µM.

With O=C(O)c1cccc(S(=O)(=O)NN2C(=O)CSC2c2c(O)ccc3ccccc23)c1 (stereo unspecified) the GI50 [1] was 37.7 µM (inactive), the GI50 [2] was 47 µM (inactive) and the GI50 [3] was 21 µM (inactive). The GI50 [4] was 20.6 µM (inactive), the GI50 [5] was 26.4 µM (inactive) and the GI50 [6] was 27 µM (inactive). The GI50 [7] was 29.9 µM (inactive), the GI50 [41] was 34.8 µM (inactive) and the GI50 [8] was 24.5 µM (inactive). For the same compound, the GI50 [9] was 30.6 µM (inactive), the GI50 [42] was 34.1 µM (inactive) and the GI50 [10] was 26.5 µM (inactive). For the same compound, the GI50 [11] was 22.1 µM (inactive), the GI50 [43] was 45.8 µM (inactive) and the GI50 [14] was 33 µM (inactive). For the same compound, the GI50 [15] was 27.8 µM (inactive), the GI50 [16] was 34.7 µM (inactive) and the GI50 [44] was > 100 µM (inactive). The GI50 [17] was 42.2 µM (inactive), the GI50 [18] was 38 µM (inactive) and the GI50 [45] was 52.6 µM (inactive). The GI50 [19] was 19 µM (inactive), the GI50 [46] was 27.4 µM (inactive) and the GI50 [21] was 22.5 µM (inactive). The GI50 [47] was 32.5 µM (inactive), the GI50 [22] was 25.5 µM (inactive) and the GI50 [23] was 28 µM (inactive). For the same compound, the GI50 [24] was 19.6 µM (inactive), the GI50 [48] was 39.4 µM (inactive) and the GI50 [25] was 24.9 µM (inactive). The GI50 [49] was 79.3 µM (inactive), the GI50 [50] was 28.9 µM (inactive) and the GI50 [26] was 31.3 µM (inactive). The GI50 [27] was 26.8 µM (inactive), the GI50 [28] was 44.7 µM (inactive) and the GI50 [29] was 16 µM (inactive). The GI50 [30] was 37.6 µM (inactive), the GI50 [51] was 33.4 µM (inactive) and the GI50 [52] was 26.4 µM (inactive). For the same compound, the GI50 [53] was 56.4 µM (inactive), the GI50 [31] was 21.7 µM (inactive) and the GI50 [32] was 41.3 µM (inactive). For the same compound, the GI50 [33] was 34.3 µM (inactive), the GI50 [34] was 36.9 µM (inactive) and the GI50 [35] was 29.3 µM (inactive). The GI50 [36] was 33.5 µM (inactive), the GI50 [54] was 22.2 µM (inactive) and the GI50 [55] was 45 µM (inactive). For the same compound, the GI50 [37] was < 0.01 µM (active), the GI50 [56] was 41.5 µM (inactive) and the GI50 [38] was 18 µM (inactive). The GI50 [57] was 21.1 µM (inactive), the GI50 [39] was 37.8 µM (inactive) and the GI50 [40] was 42.5 µM.

In the case of NS(=O)(=O)c1ccc(/C=C/c2ccc(O)c(O)c2)cc1, the GI50 [1] is reported as 17.3 µM (inactive), the GI50 [2] is reported as 47.2 µM (inactive) and the GI50 [3] is reported as 10.8 µM (inactive). The GI50 [4] was 31.6 µM (inactive), the GI50 [5] was 23.2 µM (inactive) and the GI50 [8] was 54.3 µM (inactive). For the same compound, the GI50 [9] was 20.4 µM (inactive), the GI50 [10] was 35.3 µM (inactive) and the GI50 [11] was 23.1 µM (inactive). For the same compound, the GI50 [43] was 21.2 µM (inactive), the GI50 [14] was 19.1 µM (inactive) and the GI50 [16] was 27.3 µM (inactive). For the same compound, the GI50 [44] was 60.7 µM (inactive), the GI50 [17] was 26.5 µM (inactive) and the GI50 [58] was 20.8 µM (inactive). The GI50 [18] was 21.2 µM (inactive), the GI50 [45] was 18.7 µM (inactive) and the GI50 [21] was 14.5 µM (inactive). The GI50 [24] was 25.5 µM (inactive), the GI50 [48] was 34.7 µM (inactive) and the GI50 [49] was 31.6 µM (inactive). The GI50 [27] was 19.6 µM (inactive), the GI50 [28] was 68.7 µM (inactive) and the GI50 [51] was 12.3 µM (inactive). For the same compound, the GI50 [52] was 34.4 µM (inactive), the GI50 [53] was 61.5 µM (inactive) and the GI50 [34] was 18.7 µM (inactive). For the same compound, the GI50 [35] was 29.8 µM (inactive), the GI50 [36] was 22.5 µM (inactive) and the GI50 [55] was 69.3 µM (inactive). For the same compound, the GI50 [57] was 22 µM (inactive) and the GI50 [39] was 18.3 µM (inactive).
